Structures can show the parent of a compound that is named as a salt. Where two headings read alike, the source gives them in different places. Where a SMILES comes first, the peptide text is derived from it. [ ]: non-standard residue; d: D form. αMeP = C[C@@]1(C(=O)O)CCCN1
Columns and labels:
[1] = target: T1, SARS-CoV-2 PLpro (nsp3 1564–1878) (Severe acute respiratory syndrome coronavirus 2, UniProt P0DTD1); experiment: biochemical; design: FRET-quenched peptide (Pro3) cleavage by PLpro, 10 min pre-incubation, slope over 20 min, normalised to no-compound control; settings: low concentration screen
[2] = target: T1, SARS-CoV-2 PLpro (nsp3 1564–1878); experiment: biochemical; design: FRET-quenched peptide (Pro3) cleavage by PLpro, 10 min pre-incubation, slope over 20 min, normalised to no-compound control; settings: high concentration screen
[3] = Well no.=1333, read-out: % of control remaining
[4] = Well no.=7663, read-out: % of control remaining
[5] = Well no.=4979, read-out: % of control remaining
[6] = Well no.=1197, read-out: % of control remaining
[7] = read-out: % of control remaining, Well no.=4642
[8] = Well no.=1985, read-out: % of control remaining
[9] = Well no.=8554, read-out: % of control remaining
[10] = Well no.=1630, read-out: % of control remaining
[11] = Well no.=1570, read-out: % of control remaining
[12] = Well no.=3188, read-out: % of control remaining
[13] = Well no.=3899, read-out: % of control remaining
[14] = Well no.=3469, read-out: % of control remaining
[15] = Well no.=7467, read-out: % of control remaining
[16] = Well no.=2008, read-out: % of control remaining
[17] = Well no.=6571, read-out: % of control remaining
[18] = Well no.=4916, read-out: % of control remaining
[19] = Well no.=4866, read-out: % of control remaining

## CC(CN(C)C)CN1c2ccccc2CCc2ccccc21 (centres unmarked) [Trimipramine maleate]
[1]; [3]
  remaining activity at 1.25 µM: 104%
[2]; [3]
  remaining activity at 3.75 µM: 102%

## CN(C)CCN(Cc1ccccc1)c1ccccn1 [Tripelennamine (hydrochloride)]
[1]; [4]
  remaining activity at 1.25 µM: 99.1%
[2]; [4]
  remaining activity at 3.75 µM: 98.8%

## CN(C)CCN(Cc1ccccc1)c1ccccn1 [Tripelennamine HCl]
[1]; [5]
  remaining activity at 1.25 µM: 94.3%
[2]; [5]
  remaining activity at 3.75 µM: 93%

## Cc1ccc(/C(=C\CN2CCCC2)c2ccccn2)cc1 [Triprolidine hydrochloride]
[1]; [6]
  remaining activity at 1.25 µM: 87.7%
[2]; [6]
  remaining activity at 3.75 µM: 90.1%

## CC(C)[C@]12O[C@H]1[C@@H]1O[C@]13[C@]1(O[C@H]1C[C@H]1C4=C(CC[C@@]13C)C(=O)OC4)[C@@H]2O [Triptolide]
[1]; [7]
  remaining activity at 1.25 µM: 99.8%
[2]; [7]
  remaining activity at 3.75 µM: 98.1%

## CC(C)C[C@H](NC(=O)[C@@H](Cc1c[nH]c2ccccc12)NC(=O)[C@H](Cc1ccc(O)cc1)NC(=O)[C@H](CO)NC(=O)[C@H](Cc1c[nH]c2ccccc12)NC(=O)[C@H](Cc1c[nH]cn1)NC(=O)[C@@H]1CCC(=O)N1)C(=O)N[C@@H](CCCNC(=N)N)C(=O)N1CCC[C@H]1C(=O)NCC(N)=O [Triptorelin]
[1]; [8]
  remaining activity at 1.25 µM: 100%
[2]; [8]
  remaining activity at 3.75 µM: 101%

## C[C@@]1(C(=O)N[C@@H](CCC(=O)O)C(=O)O)CCCN1C(=O)CN [Trofinetide] (H-Gly-[αMeP]-Glu-OH)
[1]; [9]
  remaining activity at 1.25 µM: 108%
[2]; [9]
  remaining activity at 3.75 µM: 98.6%

## Cc1c(C)c2c(c(C)c1O)CCC(C)(COc1ccc(CC3SC(=O)NC3=O)cc1)O2 (centres unmarked) [Troglitazone]
[1]; [10]
  remaining activity at 1.25 µM: 101%
[2]; [10]
  remaining activity at 3.75 µM: 99.4%

## CO[C@H]1C[C@H](O[C@H]2[C@H](C)[C@@H](O[C@@H]3O[C@H](C)C[C@H](N(C)C)[C@H]3OC(C)=O)[C@@H](C)C[C@@]3(CO3)C(=O)[C@H](C)[C@@H](OC(C)=O)[C@@H](C)[C@@H](C)OC(=O)[C@@H]2C)O[C@@H](C)[C@@H]1OC(C)=O [Troleandomycin]
[1]; [11]
  remaining activity at 1.25 µM: 96.7%
[1]; [12]
  remaining activity at 1.25 µM: 106%
[2]; [11]
  remaining activity at 3.75 µM: 99.5%
[2]; [12]
  remaining activity at 3.75 µM: 103%

## Cc1c(C)c2c(c(C)c1O)CCC(C)(C(=O)O)O2 (centres unmarked) [Trolox]
[1]; [13]
  remaining activity at 1.25 µM: 101%
[2]; [13]
  remaining activity at 3.75 µM: 99.4%

## CN1[C@@H]2CC[C@H]1CC(O)C2 (some centres unmarked) [Tropine]
[1]; [14]
  remaining activity at 1.25 µM: 105%
[2]; [14]
  remaining activity at 3.75 µM: 106%

## CN1[C@@H]2CC[C@H]1C[C@@H](OC(=O)c1c[nH]c3ccccc13)C2 [Tropisetron (Hydrochloride)]
[1]; [15]
  remaining activity at 1.25 µM: 100%
[2]; [15]
  remaining activity at 3.75 µM: 102%

## CN1[C@@H]2CC[C@H]1C[C@@H](OC(=O)c1c[nH]c3ccccc13)C2 [Tropisetron]
[1]; [16]
  remaining activity at 1.25 µM: 99.1%
[1]; Well no.=6607, read-out: % of control remaining
  remaining activity at 1.25 µM: 103%
[2]; [16]
  remaining activity at 3.75 µM: 101%

## O=C(O[C@H]1C[C@H]2CC[C@@H](C1)[N+]21CCCC1)C(O)(c1ccccc1)c1ccccc1 [Trospium (chloride)]
[1]; [17]
  remaining activity at 1.25 µM: 103%
[2]; [17]
  remaining activity at 3.75 µM: 102%

## O=C(O[C@H]1C[C@H]2CC[C@@H](C1)[N+]21CCCC1)C(O)(c1ccccc1)c1ccccc1 [Trospium chloride (Sanctura)]
[1]; [18]
  remaining activity at 1.25 µM: 97.3%
[2]; [18]
  remaining activity at 3.75 µM: 90.4%

## C[C@@H]1O[C@@H](OC[C@H]2O[C@@H](Oc3c(-c4ccc(OCCO)c(OCCO)c4)oc4cc(OCCO)cc(O)c4c3=O)[C@H](O)[C@@H](O)[C@@H]2O)[C@H](O)[C@H](O)[C@H]1O [Troxerutin]
[1]; [19]
  remaining activity at 1.25 µM: 95.4%
[2]; [19]
  remaining activity at 3.75 µM: 93.8%
